In US20250171417A1, “HETEROCYCLIC DERIVATIVE, AND COMPOSITION AND PHARMACEUTICAL USE THEREOF” (Xizang Haisco Pharmaceutical Co., Ltd., priority 2021, published 2025):

tested on: Prostate cancer cells 22RV1; test: Experiment on inhibiting 22RV1 cell proliferation (CellTiter-Glo, 7 days); assay type: cell-based; details: Homo sapiens, 168 h, 22RV1 cells, 7 days incubation, cells with nM printed beside the value, read-out: IC50 values for inhibition of 22RVI cells
Method: Prostate cancer cells 22RV1 were purchased from ATCC, the cell medium was RPMI 1640+10% FBS, and the cells were cultured in an incubator at 37° C. under 5% CO2. On day 1, the cells in the exponential growth phase were collected. With a 1% css-FBS phenol red-free medium, the cell suspension was adjusted to a corresponding concentration, plated at 2000 cells/well and incubated overnight. On day 2, compounds at different concentrations were added, and the plate was placed in the incubator and incubated for further 7 days. After the incubation was completed, according to operation instructions for a CellTiter-Glo kit (Promega, G7573), 50 μL of CellTiter-Glo reagents, which were already pre-melted and equilibrated to room temperature, were added to each well, and the mixtures were uniformly mixed for 2 min using a microplate shaker. The plate was placed at room temperature for 10 min. and then […] signal values were measured using a microplate reader (PHERAstar FSX). The results were processed according to formula (I), the inhibition rate of the compound at different concentrations was calculated, and the IC50 value of the compound with an inhibition rate of 50% was calculated using origin9.2 software with DoseResp function, wherein RLUcompound was the readout of the treated group, and RLUcontrol was the average value of the DMSO vehicle control group.

Structure (SMILES) | IC50 [nM]
Cc1nn(C2(C(=O)Nc3ccc(C(F)(F)F)cc3Cl)CCC2)c(C)c1C#CC1CN(c2ccc3c(c2)C(=O)N(C2CCC(=O)NC2=O)C3=O)C1 (stereo not shown) [Compound 166, N-(2-chloro-4-(trifluoromethyl)phenyl)-1-(4-((1-(2-(2,6-dioxopiperidin-3-yl)-1,3-dioxoisoindolin-5-yl)azetidin-3-yl)ethynyl)-3,5-dimethyl-1H-pyrazol-1-yl)cyclobutane-1-carboxamide] | < 50
Cn1c(C(F)(F)F)ccc(NC(=O)C(C)(C)n2cc(C#CC3CN(c4ccc5c(c4)C(=O)N(C4CCC(=O)NC4=O)C5=O)C3)cn2)c1=O (stereo not shown) [Compound 178] | < 50
CC#Cc1cc(C(F)(F)F)ccc1NC(=O)C(C)(C)n1cc(C#CC2CN(c3ccc4c(c3)C(=O)N(C3CCC(=O)NC3=O)C4=O)C2)c(C#N)n1 (stereo not shown) [Compound 202, 2-(3-cyano-4-((1-(2-(2,6-dioxopiperidin-3-yl)-1,3-dioxoisoindolin-5-yl)azetidin-3-yl)ethynyl)-1H-pyrazol-1-yl)-2-methyl-N-(2-(prop-1-yn-1-yl)-4-(trifluoromethyl)phenyl) propanamide] | < 100
[2H]C1([2H])C([2H])([2H])C(C(=O)Nc2ccc(C(F)(F)F)cc2Cl)(n2cc(C#CC3CN(c4ccc5c(c4)C(=O)N(C4CCC(=O)NC4=O)C5=O)C3)cn2)C1([2H])[2H] (stereo not shown) [Compound 113, N-(2-chloro-4-(trifluoromethyl)phenyl)-1-(4-((1-(2-(2,6-dioxopiperidin-3-yl)-1,3-dioxoisoindolin-5-yl)azetidin-3-yl)ethynyl)-1H-pyrazol-1-yl)cyclobutane-2,2,3,3,4,4-d6-1-carboxamide] | < 50
CC(C)(C(=O)Nc1ccc(C(F)(F)F)cc1C#CC1CC1)n1cc(C#CC2CN(c3ccc4c(c3)C(=O)N(C3CCC(=O)NC3=O)C4=O)C2)cn1 (stereo not shown) [Compound 116, N-(2-(cyclopropylethynyl)-4-(trifluoromethyl)phenyl)-2-(4-((1-(2-(2,6-dioxopiperidin-3-yl)-1,3-dioxoisoindolin-5-yl)azetidin-3-yl)ethynyl)-1H-pyrazol-1-yl)-2-methylpropanamide] | < 50
CC#Cc1cc(C(F)(F)F)ccc1NC(=O)C(C)(C)n1nc(C)c(C#CC2CN(c3ccc4c(c3)C(=O)N(C3CCC(=O)NC3=O)C4=O)C2)c1C (stereo not shown) [Compound 192, 2-(4-((1-(2-(2,6-dioxopiperidin-3-yl)-1,3-dioxoisoindolin-5-yl)azetidin-3-yl)ethynyl)-3,5-dimethyl-1H-pyrazol-1-yl)-2-methyl-N-(2-(prop-1-yn-1-yl)-4-(trifluoromethyl)phenyl) propanamide] | < 100

same assay, conditions: Homo sapiens, 168 h, 22RV1 cells, 7 days incubation, cells without a unit of their own (μM), read-out: IC50 values for inhibition of 22RVI cells

Structure (SMILES) | IC50 [nM]
O=C1CCC(N2C(=O)c3ccc(N4CC5CC(CN6CCC(c7cnn(C8(C(=O)Nc9ccc(C(F)(F)F)cc9Cl)CCC8)c7)CC6)CC5C4)cc3C2=O)C(=O)N1 (stereo not shown) [Compound 91, N-(2-chloro-4-(trifluoromethyl)phenyl)-1-(4-(1-((2-(2-(2,6-dioxopiperidin-3-yl)-1,3-dioxoisoindolin-5-yl)octahydrocyclopenta[c]pyrrol-5-yl)methyl)piperidin-4-yl)-1H-pyrazol-1-yl)cyclobutane-1-carboxamide] | < 1000
CNC(=O)c1cc(C(F)(F)F)ccc1NC(=O)C(C)(C)n1cc(C#CC2CN(c3ccc4c(c3)C(=O)N(C3CCC(=O)NC3=O)C4=O)C2)cn1 (stereo not shown) [Compound 52, 2-(2-(4-((1-(2-(2,6-dioxopiperidin-3-yl)-1,3-dioxoisoindolin-5-yl)azetidin-3-yl)ethynyl)-1H-pyrazol-1-yl)-2-methylpropanamido)-N-methyl-5-(trifluoromethyl)benzamide] | < 1000
CC(C)(C(=O)Nc1ccc(C#N)c(C(F)(F)F)c1)n1cc(C#CC2CN(c3cc4c(cc3F)C(=O)N(C3CCC(=O)NC3=O)C4=O)C2)cn1 (stereo not shown) [Compound 3] | < 1000
CC(C)(C(=O)Nc1cc(Cl)c(C(F)(F)F)c(Cl)c1)n1cc(C#CC2CN(c3ccc4c(c3)C(=O)N(C3CCC(=O)NC3=O)C4=O)C2)cn1 (stereo not shown) [Compound 22, N-(3,5-dichloro-4-(trifluoromethyl)phenyl)-2-(4-((1-(2-(2,6-dioxopiperidin-3-yl)-1,3-dioxoisoindolin-5-yl)azetidin-3-yl)ethynyl)-1H-pyrazol-1-yl)-2-methylpropanamide] | < 1000
